# “And” between values parts separate entries of the source, which are not always exact repeats. Identical values can stand only once. Like-named read-outs stand apart in the source and are kept apart here.
# Experiment: Plasma pharmacokinetics in infected vervet monkeys (HPLC-MS/MS)
# Format: in vivo, vervet monkey
# Conditions: for AUClast: last measurable concentration varied (112–490 days); for CL/F: read-out: Cl/F (apparent clearance) (converted)
# Source text: Parasitaemia post-infection was monitored daily, using ear-prick capillary blood, through the completion of DB868 and DB829 treatment. Following the last drug dose (LDD), blood and CSF samples were examined for trypanosomes at 1, 4, 7, and 14 days to determine the end of treatment (EoT) response; monkeys which were positive for trypanosomes in either blood or CSF at the end of this 14-day period were classified as treatment failures/not cured while those that were free of trypanosomes were classified as provisionally cured. After the 14-day EoT evaluations, parasitaemia examinations were continued twice weekly to ≥ 300 days post-LDD as described previously. Additionally, physical examinations and haematological assessments were carried out once weekly up to 28 days post-LDD, once every two weeks between 28 and 100 days post-LDD, and monthly thereafter until the end of the study as described previously. At 300 days post-LDD, monkeys were considered cured if they remained normal clinically and parasite-free in the blood and CSF. Pharmacokinetic outcomes were monitored for a minimum of 60 days post-LDD as described previously. To facilitate the collection of blood and CSF for these assessments, the monkeys were anaesthetised with an IM injection of ketamine HCl (10–15 mg/kg) and diazepam (0.5 mg/kg). Monkeys that relapsed, characterized by trypanosome recrudescence in the blood or CSF, were rescue-treated with melarsoprol. Melarsoprol (Mel B), supplied by the World Health Organization as a 3.6% (w/v) solution in propylene glycol, was administered intravenously at 3.6 mg/kg/day for 4 consecutive days.
# Plasma samples were processed for quantification of DB868 and DB829 by high performance liquid chromatography-tandem mass spectrometry (HPLC-MS/MS) as described previously. CSF samples were processed in a manner similar to that of plasma samples.
# Clinical and haematological data were analysed using Statview for Windows Version 5.0.1 (1995–1998; SAS Institute Inc., Cary, NC, USA). Repeated measures ANOVA, with Fisher’s PLSD post hoc test, was used to test the effect of trypanosome infection on haematologic parameters in comparison with respective baseline values (α = 0.05). In addition, the effects of IM DB829 and oral DB868 on these haematologic parameters in monkeys with confirmed second stage HAT were tested. Pharmacokinetic outcomes were recovered using traditional non-compartmental methods using Phoenix WinNonlin (version 6.2; Pharsight, Mountain View, CA, USA).
# [1] = IM DB829 consecutive-day dosing
# [2] = after 5th IM dose, Group 1 = 5 mg/kg × 5 consecutive days, 5 mg/kg
# [3] = after 5th IM dose, Group 3 = 2.5 mg/kg × 5 consecutive days, 2.5 mg/kg
smiles,measurement,setting,value
"N=C(N)c1ccc(-c2ccc(-c3ccc(C(=N)N)cn3)o2)nc1 [DB829, 2,5-bis(5-amidino-2-pyridyl)furan]",geometric mean plasma Cmax of DB829 relative to that after oral DB868 at 20 mg/kg/day,IM DB829 2.5 mg/kg/day,10 times
same,"AUC, alternate-day relative to consecutive-day dosing regimen",IM DB829 5 mg/kg/day,5 fold
same,geometric mean plasma Cmax of DB829 relative to that after oral DB868 at 20 mg/kg/day,"IM DB829 5 mg/kg/day, after last of 5 doses",25 fold
same,"terminal half-life, alternate-day relative to consecutive-day dosing regimen","IM DB829 5 mg/kg/day, 5 mg/kg/day",4 fold and 5 fold
same,median plasma Tmax,IM DB829 2.5 and 5 mg/kg/day consecutive-day dose groups,0.04 days
same,"geometric mean AUC, 5 mg/kg/day group relative to 2.5 mg/kg/day group",[1],2.1 fold
same,"geometric mean Cmax, 5 mg/kg/day group relative to 2.5 mg/kg/day group",[1],2.7 fold
same,AUC0-∞,[2],13000 nmol·days/L and 15000 nmol·days/L
same,Cl/F (apparent clearance),[2],0.528 mL/min/kg
same,t½ (terminal half-life),[2],44 days
same,AUClast,[2],12000 nmol·days/L and 13000 nmol·days/L
same,t½ (terminal half-life),"after 5th IM dose, Group 2 = 5 mg/kg × 5 alternating days, 5 mg/kg",180 days
same,AUC0-∞,[3],8300 nmol·days/L and 5300 nmol·days/L
same,Cl/F (apparent clearance),[3],0.694 mL/min/kg
same,t½ (terminal half-life),[3],42 days
same,AUClast,[3],7700 nmol·days/L and 4500 nmol·days/L
same,geometric mean AUC0–63 of DB829 relative to single monkey of 3 mg/kg/day group,after oral DB868 10 mg/kg/day,approximately 3 fold
same,geometric mean AUC0–63 of DB829 relative to single monkey of 3 mg/kg/day group,after oral DB868 20 mg/kg/day,~4 fold
same,CL/F,"monkey, in vivo, im, 2.5 mg/kg, after 5th IM dose, Group 3 = 2.5 mg/kg × 5 consecutive days",0.465 mL/min/kg
same,half-life,"monkey, in vivo, im, 2.5 mg/kg, after 5th IM dose, Group 3 = 2.5 mg/kg × 5 consecutive days, read-out: t½ (terminal half-life) (converted)",33 days
same,Cmax,"monkey, in vivo, im, 2.5 mg/kg, plasma DB829 after 5th IM dose, Group 3 = 2.5 mg/kg × 5 consecutive days, read-out: Cmax",4200 nM
same,Tmax,"monkey, in vivo, im, 2.5 mg/kg, plasma DB829 after 5th IM dose, Group 3 = 2.5 mg/kg × 5 consecutive days, read-out: Tmax (converted)",0.04 days
same,CL/F,"monkey, in vivo, im, 5 mg/kg, after 5th IM dose, Group 1 = 5 mg/kg × 5 consecutive days",0.59 mL/min/kg
same,half-life,"monkey, in vivo, im, 5 mg/kg, after 5th IM dose, Group 1 = 5 mg/kg × 5 consecutive days, read-out: t½ (terminal half-life) (converted)",34 days
same,half-life,"monkey, in vivo, im, 5 mg/kg, after 5th IM dose, Group 2 = 5 mg/kg × 5 alternating days, read-out: t½ (terminal half-life) (converted)",130 days
same,Cmax,"monkey, in vivo, im, 5 mg/kg, plasma DB829 after 5th IM dose, Group 1 = 5 mg/kg × 5 consecutive days, read-out: Cmax",12000 nM
same,Tmax,"monkey, in vivo, im, 5 mg/kg, plasma DB829 after 5th IM dose, Group 1 = 5 mg/kg × 5 consecutive days, read-out: Tmax (converted)",0.04 days
same,Cmax,"monkey, in vivo, im, 5 mg/kg, plasma DB829 after 5th IM dose, Group 2 = 5 mg/kg × 5 alternating days, read-out: Cmax",16000 nM
same,Tmax,"monkey, in vivo, im, 5 mg/kg, plasma DB829 after 5th IM dose, Group 2 = 5 mg/kg × 5 alternating days, read-out: Tmax (converted)",0.04 days
same,half-life,"monkey, in vivo, im, IM DB829 consecutive-day dosing regimens, read-out: geometric mean (range) terminal half-life (t½) (converted)",38 days
same,Cmax,"monkey, in vivo, po, 3 mg/kg/day, after oral DB868 3 mg/kg/day, read-out: Geometric mean Cmax (range) of DB829",85 nM
same,Cmax,"monkey, in vivo, po, 3 mg/kg/day, plasma DB829 after the 10th oral dose of DB868, 3 mg/kg × 10 days, read-out: Cmax",60 nM
same,Cmax,"monkey, in vivo, po, 10 mg/kg/day, after oral DB868 10 mg/kg/day, read-out: Geometric mean Cmax (range) of DB829",270 nM
same,Cmax,"monkey, in vivo, po, 10 mg/kg/day, plasma DB829 after the 10th oral dose of DB868, 10 mg/kg × 10 days, read-out: Cmax",410 nM
same,half-life,"monkey, in vivo, po, 10 mg/kg/day, plasma DB829 after the 10th oral dose of DB868, 10 mg/kg × 10 days, read-out: t½ (converted)",120 days
same,Cmax,"monkey, in vivo, po, 20 mg/kg/day, after oral DB868 20 mg/kg/day, read-out: Geometric mean Cmax (range) of DB829",530 nM
same,Cmax,"monkey, in vivo, po, 20 mg/kg/day, plasma DB829 after the 10th oral dose of DB868, 20 mg/kg × 10 days, read-out: Cmax",460 nM
same,Tmax,"monkey, in vivo, po, after oral DB868, three treatment groups, read-out: Median plasma Tmax for DB829 (converted)",0.33 days
same,Tmax,"monkey, in vivo, po, after oral DB868, three treatment groups, read-out: range of plasma Tmax for DB829",0.04 to 2 days
same,half-life,"monkey, in vivo, po, given IM or orally as DB868, range over monkeys, read-out: half-life for DB829",33 to 180 days
same,Cmax,"plasma DB829 after 5th IM dose, Group 1 = 5 mg/kg × 5 consecutive days, 5 mg/kg, read-out: Cmax",15000 nM
same,Cmax,"plasma DB829 after 5th IM dose, Group 2 = 5 mg/kg × 5 alternating days, 5 mg/kg, read-out: Cmax",8900 nM
same,Cmax,"plasma DB829 after 5th IM dose, Group 3 = 2.5 mg/kg × 5 consecutive days, 2.5 mg/kg, read-out: Cmax",5900 nM
same,Tmax,"plasma DB829 after the 10th oral dose of DB868, 3 mg/kg × 10 days",0.33 days
same,AUC0–63,"plasma DB829 after the 10th oral dose of DB868, 3 mg/kg × 10 days, 0 to 63 days",1800 nmol·days/L
same,Cmax,"plasma DB829 after the 10th oral dose of DB868, 3 mg/kg × 10 days, read-out: Cmax",110 nM
same,Cmax,"plasma DB829 after the 10th oral dose of DB868, 10 mg/kg × 10 days, read-out: Cmax",340 nM
same,Cmax,"plasma DB829 after the 10th oral dose of DB868, 20 mg/kg × 10 days, read-out: Cmax",630 nM and 500 nM

# From publication PMC4318582, “Chemotherapy of Second Stage Human African Trypanosomiasis: Comparison between the Parenteral Diamidine DB829 and Its Oral Prodrug DB868 in Vervet Monkeys” (PLoS Neglected Tropical Diseases, 2015)
